Source: the NIST ThermoML archive (doi:10.1016/j.jct.2014.09.005)

Columns and labels:
[1] = xn = mol fraction of the nth substance listed; details: 303.15 K, 101 kPa, Liquid; for viscosity: Capillary tube (Ostwald / Ubbelohde) method; for mass density: Vibrating tube method
[2] = refractive index (Na D-line) (dimensionless); xn = mol fraction of the nth substance listed; details: 101 kPa, Liquid, Standard Abbe refractometry

NC1CCCCC1 [cyclohexylamine] + CCCCCCCO
[1]
Details | mass density [kg/m3] | viscosity [mPa·s]
x2 = 0.1018 | 854.9 | –
x2 = 0.1499 | 853.33 | –
x2 = 0.1996 | 851.74 | –
x2 = 0.2982 | 848.55 | –
x2 = 0.3979 | 845 | –
x2 = 0.4465 | 843.2 | –
x2 = 0.4931 | 841.35 | –
x2 = 0.5432 | 839.17 | –
x2 = 0.6008 | 836.68 | 3.658
x2 = 0.6598 | 833.93 | 3.694
x2 = 0.7019 | 831.8 | 4.005
x2 = 0.7479 | 829.48 | 3.974
x2 = 0.7967 | 826.8 | 4.317
x2 = 0.8466 | 824.12 | 4.283
x2 = 0.8935 | 821.5 | 4.444
x2 = 0.9432 | 818.64 | 4.626

refractive index, [2]
Details | 293.15 K | 298.15 K | 303.15 K
x2 = 0.1018 | – | 1.45356 | 1.45099
x2 = 0.1499 | 1.45459 | 1.45216 | 1.44958
x2 = 0.1996 | 1.45301 | 1.45053 | 1.44805
x2 = 0.2982 | 1.44986 | 1.44763 | 1.4452
x2 = 0.3979 | 1.44669 | – | 1.44224
x2 = 0.4004 | 1.44661 | 1.44444 | –
x2 = 0.4465 | 1.44519 | 1.44298 | 1.44068
x2 = 0.4931 | 1.44365 | 1.44143 | 1.43923
x2 = 0.5432 | 1.44192 | 1.43977 | 1.43752
x2 = 0.5946 | – | 1.43797 | 1.43575
x2 = 0.6008 | 1.43985 | – | 1.43554
x2 = 0.6598 | 1.43777 | 1.43561 | 1.43355
x2 = 0.6969 | 1.4364 | – | –
x2 = 0.7019 | – | 1.43404 | 1.432
x2 = 0.7479 | 1.43438 | 1.43244 | 1.43042
x2 = 0.7967 | 1.43236 | 1.43053 | 1.42836
x2 = 0.8466 | 1.4305 | 1.42852 | 1.42657
x2 = 0.8935 | 1.42866 | 1.42666 | 1.42455
x2 = 0.9432 | 1.42665 | 1.42476 | 1.42262
